From publication PMC4364779, “IMD-4690, a Novel Specific Inhibitor for Plasminogen Activator Inhibitor-1, Reduces Allergic Airway Remodeling in a Mouse Model of Chronic Asthma via Regulating Angiogenesis and Remodeling-Related Mediators” (PLoS ONE, 2015) come the findings set out here.

For assay [1], the target named is Anti-thrombin (AT3/SERPINC1) (Homo sapiens, UniProt P01008). As to the kind of experiment: SERPIN inhibition selectivity, similar enzymatic method. The class given is biochemical. As to conditions: Ser protease: Thrombin, factor Xa. How it is done: (§1) Inhibitory effect of IMD-4690 on the activity of PAI-1 was measured by the direct tPA assay. Briefly, recombinant tPA and PAI-1 was mixed with IMD-4690, and then tPA substrate with fluorescent pigment (Pyr-Gly-Arg-MCA) was added in this mixture and incubated. The enzymatic activity was calculated by measuring the fluorescence. The inhibitory activity of IMD-4690 on other enzymes was measured with the similar method.

Another assay has as its target PAI-2 (SERPINB2) (Homo sapiens, UniProt P05120). Described as above. The assay is classed as biochemical. As to conditions: Ser protease: uPA. The method, then: as §1
Assay [2] addresses T1, PAI-3 (Protein C inhibitor/SERPINA5) (Homo sapiens, UniProt P05154).
T1 sequence (P05154 26-406): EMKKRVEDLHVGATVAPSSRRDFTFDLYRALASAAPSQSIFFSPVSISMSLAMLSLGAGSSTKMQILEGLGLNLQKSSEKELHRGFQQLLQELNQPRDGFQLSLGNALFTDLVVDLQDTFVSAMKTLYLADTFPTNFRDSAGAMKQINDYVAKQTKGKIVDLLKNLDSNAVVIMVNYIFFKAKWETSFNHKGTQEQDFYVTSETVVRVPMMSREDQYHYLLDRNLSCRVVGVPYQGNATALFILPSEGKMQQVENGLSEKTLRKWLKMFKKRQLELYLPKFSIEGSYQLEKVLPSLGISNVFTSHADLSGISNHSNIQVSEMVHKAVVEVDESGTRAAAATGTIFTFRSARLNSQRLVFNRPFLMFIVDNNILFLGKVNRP
The description is as above. The assay is classed as biochemical. As to conditions: Ser protease: uPA. The method, then:
as §1

Assay [3] deals with T2, α1-anti-chymotrypsin (SERPINA3) (Homo sapiens, UniProt P01011).
T2 sequence (P01011 24-423): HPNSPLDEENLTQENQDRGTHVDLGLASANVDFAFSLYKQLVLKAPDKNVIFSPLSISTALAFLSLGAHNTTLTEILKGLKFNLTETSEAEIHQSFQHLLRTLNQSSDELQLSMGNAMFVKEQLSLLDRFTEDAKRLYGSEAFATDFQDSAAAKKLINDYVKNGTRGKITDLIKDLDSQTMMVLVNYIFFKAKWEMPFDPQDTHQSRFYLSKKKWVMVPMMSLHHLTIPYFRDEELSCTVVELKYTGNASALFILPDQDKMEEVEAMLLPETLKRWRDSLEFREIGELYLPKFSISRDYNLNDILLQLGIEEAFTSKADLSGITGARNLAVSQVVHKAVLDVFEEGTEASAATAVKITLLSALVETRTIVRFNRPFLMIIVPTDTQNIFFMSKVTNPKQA
The assay is described as above. The assay is classed as biochemical. As to conditions: Ser protease: Chymotrypsin, Cathepsin G. The method, then:
as §1

Assay [4] concerns the target α1-anti-trypsin (SERPINA1) (Homo sapiens, UniProt P01009). The assay is described as above. The assay is classed as biochemical. As to conditions: Ser protease: Trypsin, Neu-Elastase. How it is done: as §1
The subject of assay [5] is chronic allergen exposure model of bronchial asthma in mice. As to the kind of experiment: Mediators in lung homogenates (ELISA/activity kits), chronic Dp exposure asthma model. The class given is in vivo, mouse. How it is done:
(§2) All mice were sensitized on days 0 and 7 by intraperitoneal injections of 10 μg of Dp dissolved in 500 μL saline and mixed with 1mg of Alum (Sigma-Aldrich Japan). Dp-sensitized mice were challenged intranasally with 10 μg (10 μL) Dp in 70 μL saline on alternate days, 3 days per week, from days 14 to 67. The mice were also treated intraperitoneally with IMD-4690 (10 mg/kg) (Dp/IMD group) or CMC alone (Dp/CMC group) at the same day with Dp challenge. As a control, mice were challenged with saline and given CMC during this period (control/CMC group) (Fig. 1A). Each experiment was performed using six mice per group.
The right lungs were frozen until analyzed. Frozen tissue were solubilized by homogenization in lysis buffer (Cell Signaling Technology, Inc., Danvers, Mass., USA) containing 1 tablet of Complete Protease Inhibitor Cocktail Tablets, EDTA-free (Santa Cruz Biotechnology, Inc., Santa Cruz, CA, USA), per 25 mL of buffer by using an Ultramicro homogenizer set (I.S.O.,Inc., Yokohama, Japan). Samples of the homogenate were centrifuged at 15,000 rpm for 10 min. The supernatants were stored at -80°C.
Protein concentrations were determined by the BCA method (Pierce, Rockford, IL, USA). Cytokines, growth factors, enzymes, and serum IgE were determined using commercial ELISA kits. ELISA kits and their sensitivities were as follows: IL-4, -5, -12, -13, TNF-α, IFN-γ, VEGF, TGF-β, total MMP-9, and TIMP-1 (R&D Systems, Minneapolis, MN, USA), with sensitivities of 2, 7, 2.5, 1.5, 5.1, 2, 3, 1.7, 7, and 1.4 pg/mL, respectively; active and total PAI-1 (Innovative Research Inc., Sarasota, FL, USA) with sensitivities of 20 and 32 pg/mL; active MMP-9 (MMP-9 Biotrak Activity Assay, GE Healthcare, Buckinghamshire, UK) with a sensitivity of 0.5 ng/mL; HGF (Rat HGF determination kit by EIA, Institute of Immunology Co., Ltd., Tokyo, Japan) with a sensitivity of 0.4 ng/mL; and serum IgE (ELISA mouse IgE kit, Seikagaku Biobussiness Corp., Tokyo, Japan) with a sensitivity of 0.5 ng/mL.
For orientation: In an ELISA, binding on a coated surface is turned into a signal by an enzyme label.

For assay [6] the test system is unchanged. As to the kind of experiment: Total lung collagen (Sircol assay), chronic Dp asthma model. The assay is classed as in vivo, mouse. As to conditions: day 70, 10 mg/kg i.p., vs Dp/CMC mice. The method, then:
as §2
The left lungs were harvested on day 70 and used for collagen assays. Total lung collagen was determined using a Sircol Collagen Assay kit (Biocolor Ltd, Belfast, Northern Ireland) according to the manufacturer’s instructions.

Where [7] appears, read: BALB/c mice, Dp challenge 8 weeks, 10 mg/kg i.p., vs Dp/CMC mice.
Setting [8] is: Dp/IMD mice (10 mg/kg i.p.) vs Dp/CMC mice.
Where [9] appears, read: ELISA, 10 mg/kg i.p., vs Dp/CMC mice.

Sequence of PAI-2 (SERPINB2) (P05120 whole entry): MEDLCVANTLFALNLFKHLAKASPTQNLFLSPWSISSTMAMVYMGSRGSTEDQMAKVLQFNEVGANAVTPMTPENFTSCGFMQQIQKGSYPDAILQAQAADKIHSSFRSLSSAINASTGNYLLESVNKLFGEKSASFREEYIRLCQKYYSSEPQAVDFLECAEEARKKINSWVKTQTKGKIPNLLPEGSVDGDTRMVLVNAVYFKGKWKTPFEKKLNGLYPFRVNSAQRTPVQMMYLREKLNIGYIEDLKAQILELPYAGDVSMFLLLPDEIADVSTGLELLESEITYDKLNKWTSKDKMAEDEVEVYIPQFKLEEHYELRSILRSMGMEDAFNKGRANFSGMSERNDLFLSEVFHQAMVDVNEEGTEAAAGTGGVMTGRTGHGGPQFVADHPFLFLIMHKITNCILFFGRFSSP
Sequence of α1-anti-trypsin (SERPINA1) (P01009 25-418): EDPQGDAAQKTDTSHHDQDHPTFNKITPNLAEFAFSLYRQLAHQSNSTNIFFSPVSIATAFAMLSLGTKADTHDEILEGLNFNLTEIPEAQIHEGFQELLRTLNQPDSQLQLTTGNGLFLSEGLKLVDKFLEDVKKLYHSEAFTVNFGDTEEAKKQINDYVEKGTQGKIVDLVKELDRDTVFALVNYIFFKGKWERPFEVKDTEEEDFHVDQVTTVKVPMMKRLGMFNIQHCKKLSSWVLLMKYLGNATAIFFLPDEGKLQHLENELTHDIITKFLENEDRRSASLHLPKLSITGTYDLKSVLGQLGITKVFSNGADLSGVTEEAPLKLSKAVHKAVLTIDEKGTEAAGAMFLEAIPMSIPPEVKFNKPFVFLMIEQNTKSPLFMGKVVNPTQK
Sequence of Anti-thrombin (AT3/SERPINC1) (P01008 33-464): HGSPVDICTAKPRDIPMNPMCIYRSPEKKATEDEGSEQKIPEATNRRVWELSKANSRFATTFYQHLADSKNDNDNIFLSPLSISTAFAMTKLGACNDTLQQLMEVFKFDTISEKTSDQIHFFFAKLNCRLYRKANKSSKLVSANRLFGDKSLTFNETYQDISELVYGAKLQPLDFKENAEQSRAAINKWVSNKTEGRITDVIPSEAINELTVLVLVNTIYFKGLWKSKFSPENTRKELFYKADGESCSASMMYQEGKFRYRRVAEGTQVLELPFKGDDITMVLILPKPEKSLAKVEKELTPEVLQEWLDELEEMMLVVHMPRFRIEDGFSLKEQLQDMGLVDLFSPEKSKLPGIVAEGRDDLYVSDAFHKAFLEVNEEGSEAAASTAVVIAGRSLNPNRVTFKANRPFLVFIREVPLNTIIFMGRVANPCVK

What is called IC50 is the concentration that inhibits the measured activity by half. `CC(C)(C)c1ccc(Oc2cc(-c3ccc(OC(F)(F)F)cc3)ccc2OCC(=O)O)cc1` [IMD-4690, 2-[[3-(4-tert-Butylphenoxy)-4'-(trifluoromethoxy) [1,1'-biphenyl]-4-yl]oxy] acetic acid] yielded an IC50 in assay [1] greater than 25 µM. At PAI-2 (SERPINB2), this compound showed an IC50 greater than 25 µM. The compound also had an IC50 in assay [2] greater than 25 µM. In assay [3], the IC50 is greater than 25 µM. In addition, the IC50 in assay [4] is greater than 25 µM. In assay [5] (10 mg/kg i.p., vs Dp/CMC mice), the “IFN-γ production in lung homogenates” value was “inhibited”, the “IL-4 level in lung homogenates” value is on record as “significantly decreased”, the “IL-5 level in lung homogenates” value was “significantly decreased” and the “IL-13 level in lung homogenates” value is “significantly decreased”. In addition, in assay [5] (10 mg/kg i.p., vs Dp/CMC mice), the “Ratio of active MMP-9/TIMP-1 in lung homogenates” value is recorded as “significantly restored” and the “TNF-α production in lung homogenates” value is “inhibited”. Moreover, in assay [5] (setting [7]), the “Level of active PAI-1 in lung homogenates” value is reported as “significantly reduced” and the “Level of total PAI-1 in lung homogenates” value was “significantly reduced”. For the same compound, in assay [5] (setting [8]), the “HGF levels in lung homogenates” value is reported as “significantly higher” and the “Proportion of active PAI-1 as a percentage of the total PAI-1 in lung homogenates” value was “significantly lower”. Further, in assay [5] (setting [9]), the “Active form of TGF-β1 in lung homogenates” value is given as “significantly reduced”; the “Total MMP-9 levels in lung homogenates” value is recorded as “tended to decrease the total MMP-9 levels, although no significant differences were observed”; the “VEGF concentration in lung homogenates and BALF” value was “significantly reduced”. The “Total collagen in the lungs” value in assay [6] was “reduced”.
